A word on the IC50: it is the point on the concentration scale where inhibition reaches its midpoint.

Among the data in patent US20240368135A1 (VERTEX PHARMACEUTICALS INCORPORATED, priority 2021, published 2024) are IC50 values, retold here.

In the assay the target is human NaV 1.8 (Homo sapiens, UniProt Q9Y5Y9). The experiment in a line: E-VIPR assay detecting and measuring NaV inhibition properties. The class given is cell-based. Particulars: HEK cells expressing truncated human NaV 1.8. Summed up:
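Membrane potential was followed by coumarin/oxonol FRET during electrical field stimulation of matrigel-seeded HEK cells carrying truncated human NaV1.8 plus KIR2.1. Dosing used 11 points, 3-fold steps, top 300 nM final, 0.625% DMSO, with or without 25% human serum.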

[1] abbreviates: no human serum, read-out: IC50 in the E-VIPR Assay.
[2] abbreviates: in the presence of human serum (compound numbers followed by *), read-out: IC50 in the E-VIPR Assay, performed in the presence of human serum.

Where two headings read alike, the source gives them in different places.

Sequence of human NaV 1.8 (Q9Y5Y9 126-399 limits assumed): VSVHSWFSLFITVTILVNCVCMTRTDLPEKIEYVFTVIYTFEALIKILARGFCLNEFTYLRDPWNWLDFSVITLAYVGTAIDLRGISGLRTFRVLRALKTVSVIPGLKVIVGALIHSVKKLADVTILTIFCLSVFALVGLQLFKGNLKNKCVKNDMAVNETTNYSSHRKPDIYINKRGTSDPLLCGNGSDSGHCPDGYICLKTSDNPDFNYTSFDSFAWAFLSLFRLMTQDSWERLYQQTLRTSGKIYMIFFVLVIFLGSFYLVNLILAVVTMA
Sequence of human NaV 1.8 (Q9Y5Y9 660-890 limits assumed): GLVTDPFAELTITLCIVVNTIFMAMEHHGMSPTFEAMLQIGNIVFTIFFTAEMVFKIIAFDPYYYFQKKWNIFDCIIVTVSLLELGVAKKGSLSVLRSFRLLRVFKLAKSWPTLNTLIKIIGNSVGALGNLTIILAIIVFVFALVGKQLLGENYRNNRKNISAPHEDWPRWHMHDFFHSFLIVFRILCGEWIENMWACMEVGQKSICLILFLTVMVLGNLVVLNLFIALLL
Sequence of human NaV 1.8 (Q9Y5Y9 1148-1722 limits assumed): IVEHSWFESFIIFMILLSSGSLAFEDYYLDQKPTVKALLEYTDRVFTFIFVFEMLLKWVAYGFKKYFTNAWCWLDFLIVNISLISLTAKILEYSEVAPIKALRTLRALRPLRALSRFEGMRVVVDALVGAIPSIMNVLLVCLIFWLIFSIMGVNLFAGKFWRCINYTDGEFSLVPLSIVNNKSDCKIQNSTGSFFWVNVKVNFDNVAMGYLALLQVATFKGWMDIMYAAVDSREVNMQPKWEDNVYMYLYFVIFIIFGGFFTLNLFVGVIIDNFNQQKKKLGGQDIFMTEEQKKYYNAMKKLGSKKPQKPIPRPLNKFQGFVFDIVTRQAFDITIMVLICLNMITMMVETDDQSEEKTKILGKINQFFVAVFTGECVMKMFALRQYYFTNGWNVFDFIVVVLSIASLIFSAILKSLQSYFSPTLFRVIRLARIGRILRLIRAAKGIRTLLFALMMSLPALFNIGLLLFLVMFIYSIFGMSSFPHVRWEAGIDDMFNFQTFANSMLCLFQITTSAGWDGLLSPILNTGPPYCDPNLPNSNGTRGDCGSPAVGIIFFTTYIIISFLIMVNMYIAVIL

For the compound `CC1C(c2ccc(F)c(F)c2OCCO)C(C(=O)Nc2ncn(C3CC(F)C3)n2)OC1(C)C(F)(F)F` [Compound 554, (2R,3S,4S,5R)-3-(3,4-difluoro-2-(2-hydroxyethoxy)phenyl)-N-(1-((15,3S)-3-fluorocyclobutyl)-1H-1,2,4-triazol-3-yl)-4,5-dimethyl-5-(trifluoromethyl)tetrahydrofuran-2-carboxamide], under setting [1], the concentration for half-maximal inhibition (IC50) was no less than 1 µM.
For the compound `COc1c(C2C(C(=O)Nc3ccnc(C(O)C(C)O)c3)OC(C)(C(F)(F)F)C2C)ccc(F)c1C` (single isomer, unassigned) [Compound 149], the IC50 under setting [2] lay within 0.1 to 1 µM.
Consider `COc1c(C2C(C(=O)Nc3ccnc(C(C)(C)O)c3)OC(C)(C(F)(F)F)C2C)ccc(F)c1F` (single isomer, unassigned) [Compound 47, 3-(3,4-difluoro-2-methoxy-phenyl)-N-[2-(1-hydroxy-1-methyl-ethyl)-4-pyridyl]-4,5-dimethyl-5-(trifluoromethyl)tetrahydrofuran-2-carboxamide], for which the IC50 under setting [1] is no less than 1 µM.
The same measure, in the same setting: then `C[C@@H]1[C@H](c2ccc(F)c(F)c2OC(F)F)[C@@H](C(=O)Nc2ccn3nnnc3c2)O[C@]1(C)C(F)(F)F` (single isomer, unassigned) [Compound 79], with 0.1 to 1 µM.
Take `C[C@@H]1[C@H](c2ccc(F)c(F)c2OC(F)F)[C@@H](C(=O)Nc2cc(S(C)(=O)=O)c[n+]([O-])c2)O[C@]1(C)C(F)(F)F` (single isomer, unassigned) [Compound 87]: the IC50 under setting [2] was no less than 1 µM.
On the same count and under the same terms, then `COc1c([C@H]2C[C@@](C)(C(F)(F)F)O[C@@H]2C(=O)Nc2ccnc([C@@H](O)[C@H](C)O)c2)ccc(F)c1F` (stereo in doubt) [Compound 698, rel-(2S,3R,5S)-3-(3,4-difluoro-2-methoxyphenyl)-N-(2-((1R,2S)-1,2-dihydroxypropyl)pyridin-4-yl)-5-methyl-5-(trifluoromethyl)tetrahydrofuran-2-carboxamide], with no less than 1 µM; and `C[C@@H]1[C@H](c2ccc(F)c(F)c2OC(F)F)[C@@H](C(=O)Nc2cncc(C#N)c2)O[C@]1(C)C(F)(F)F` (single isomer, unassigned) [Compound 69], with no less than 1 µM.
For `COc1c([C@H]2C[C@@](C)(C(F)(F)F)O[C@@H]2C(=O)Nc2ccnc(C(O)CO)c2)ccc(F)c1F` (single isomer, unassigned) [Compound 686], the IC50 under setting [2] is no less than 1 µM.
As for `COCC(O)c1cc(NC(=O)[C@@H]2O[C@@](C)(C(F)(F)F)[C@@H](C)[C@H]2c2ccc(F)c(F)c2OCCN2CC3CC(C2)O3)ccn1` (single isomer, unassigned) [Compound 610, rel-(2R*,3S*,4S*,5R*)-3-(2-(2-(6-oxa-3-azabicyclo[3.1.1]heptan-3-yl)ethoxy)-3,4-difluorophenyl)-N-(2-(1-hydroxy-2-methoxyethyl)pyridin-4-yl)-4,5-dimethyl-5-(trifluoromethyl)tetrahydrofuran-2-carboxamide], the 50% inhibitory concentration (IC50) under setting [1] is 0.01 to 0.1 µM.
Turning to `COc1c([C@H]2[C@H](C(=O)Nc3ccnc(N4C[C@@H](C)N(C)CC4=O)c3)O[C@@](C)(C(F)(F)F)[C@H]2C)ccc(F)c1F` [Compound 470, (2R,3S,4S,5R)-3-(3,4-difluoro-2-methoxyphenyl)-N-(2-((R)-4,5-dimethyl-2-oxopiperazin-1-yl)pyridin-4-yl)-4,5-dimethyl-5-(trifluoromethyl)tetrahydrofuran-2-carboxamide], the IC50 under setting [1] was less than 0.01 µM.
`COc1c([C@H]2[C@@H](C)[C@@H](C)O[C@@H]2C(=O)Nc2ccnc(C(O)CO)c2)ccc(F)c1F` (relative stereo) [Compound 719, rel-(2S,3R,4R,5R)-3-(3,4-difluoro-2-methoxyphenyl)-N-(2-(1,2-dihydroxyethyl)pyridin-4-yl)-4,5-dimethyltetrahydrofuran-2-carboxamide]: the half-inhibitory concentration (IC50) under setting [2] was no less than 1 µM.
For the compound `C[C@H]1[C@@H](c2ccc(F)c(F)c2OCCO)[C@H](C(=O)Nc2ccon2)O[C@@]1(C)C(F)(F)F` [Compound 556, (2R,3S,4S,5R)-3-(3,4-difluoro-2-(2-hydroxyethoxy)phenyl)-N-(isoxazol-3-yl)-4,5-dimethyl-5-(trifluoromethyl)tetrahydrofuran-2-carboxamide], the 50% inhibitory concentration (IC50) under setting [1] fell in the range of 0.1 to 1 µM.
Same read-out and setting: then `COc1c([C@H]2[C@H](C(=O)Nc3ccnc(C(CO)N(C)C)c3)O[C@@](C)(C(F)(F)F)[C@H]2C)ccc(F)c1F` (single isomer, unassigned) [Compound 230, rel-(2R*,3S*,4S*,5R*)-3-(3,4-difluoro-2-methoxyphenyl)-N-(2-(-1-(dimethylamino)-2-hydroxyethyl)pyridin-4-yl)-4,5-dimethyl-5-(trifluoromethyl)tetrahydrofuran-2-carboxamide], with less than 0.01 µM; and `COc1c([C@H]2[C@H](C(=O)Nc3cc(C(C)(C)O)ncn3)O[C@@](C)(C(F)(F)F)[C@H]2C)ccc(F)c1F` [Compound 389, (2R,3S,4S,5R)-3-(3,4-difluoro-2-methoxy-phenyl)-N-[6-(1-hydroxy-1-methyl-ethyl)pyrimidin-4-yl]-4,5-dimethyl-5-(trifluoromethyl)tetrahydrofuran-2-carboxamide], with 0.01 to 0.1 µM; and `COc1c(C2C(C(=O)Nc3ccn4nnnc4c3)OC(C)(C(F)(F)F)C2C)ccc(F)c1C` (single isomer, unassigned) [Compound 133, 3-(4-fluoro-2-methoxy-3-methyl-phenyl)-4,5-dimethyl-N-(tetrazolo[1,5-a]pyridin-7-yl)-5-(trifluoromethyl)tetrahydrofuran-2-carboxamide], with 0.1 to 1 µM.
With `COc1c([C@H]2[C@H](C(=O)Nc3ccnc(N4C(=O)CN(C)C[C@@H]4C)c3)O[C@@](C)(C(F)(F)F)[C@H]2C)ccc(F)c1F` [Compound 469, (2R,3S,4S,5R)-3-(3,4-difluoro-2-methoxyphenyl)-N-(2-((S)-2,4-dimethyl-6-oxopiperazin-1-yl)pyridin-4-yl)-4,5-dimethyl-5-(trifluoromethyl)tetrahydrofuran-2-carboxamide], the IC50 under setting [1] was less than 0.01 µM.
`C[C@H]1[C@@H](c2ccc(F)c(F)c2OC(F)F)[C@H](C(=O)Nc2cc(S(C)(=O)=O)c[n+]([O-])c2)O[C@@]1(C)C(F)(F)F` (single isomer, unassigned) [Compound 88]: under setting [2], the half-inhibitory concentration (IC50) was in the range of 0.1 to 1 µM.
Regarding `COc1c([C@H]2[C@H](C(=O)NC(C)c3cnn(C)c3)O[C@@](C)(C(F)(F)F)[C@H]2C)ccc(F)c1F` (stereo partly drawn) [Compound 296, (2R,3S,4S,5R)-3-(3,4-difluoro-2-methoxyphenyl)-4,5-dimethyl-N-(1-(1-methyl-1H-pyrazol-4-yl)ethyl)-5-(trifluoromethyl)tetrahydrofuran-2-carboxamide], under setting [1], the IC50 was no less than 1 µM.
Same read-out and setting: in the case of `C[C@H]1[C@@H](c2ccc(F)c(F)c2OCCO)[C@H](C(=O)Nc2ccc(C(N)=O)nc2)O[C@@]1(C)C(F)(F)F` [Compound 615, 5-((2R,3S,4S,5R)-3-(3,4-difluoro-2-(2-hydroxyethoxy)phenyl)-4,5-dimethyl-5-(trifluoromethyl)tetrahydrofuran-2-carboxamido)picolinamide] it was 0.01 to 0.1 µM.
Still for that read-out and setting: in the case of `COCc1c(F)ccc([C@@H]2[C@@H](C(=O)Nc3ccc(C(N)=O)nc3)O[C@](C)(C(F)(F)F)[C@@H]2C)c1OC` (stereo in doubt) [Compound 178, rel-5-((2S,3R,4R,5S)-3-(4-fluoro-2-methoxy-3-(methoxymethyl)phenyl)-4,5-dimethyl-5-(trifluoromethyl)tetrahydrofuran-2-carboxamido)picolinamide] it was no less than 1 µM.
The same measure, in the same setting: then `Cc1nocc1NC(=O)[C@@H]1O[C@@](C)(C(F)(F)F)[C@@H](C)[C@H]1c1ccc(F)c(F)c1OC[C@@H](C)N1CC2(COC2)C1` [Compound 624, (2R,3S,4S,5R)-3-[3,4-difluoro-2-[(2R)-2-(2-oxa-6-azaspiro[3.3]heptan-6-yl)propoxy]phenyl]-4,5-dimethyl-N-(3-methylisoxazol-4-yl)-5-(trifluoromethyl)tetrahydrofuran-2-carboxamide], with 0.1 to 1 µM; and `C[C@H]1[C@@H](c2ccc(F)c(F)c2OC(F)F)[C@H](C(=O)Nc2ccnc(CC(C)(C)O)c2)O[C@@]1(C)C(F)(F)F` (single isomer, unassigned) [Compound 464], with 0.01 to 0.1 µM.
In the case of `COc1c([C@H]2[C@H](C(=O)Nc3ccc(C(F)F)nc3)O[C@@](C)(C(F)(F)F)[C@H]2C)ccc(F)c1C(F)F` (single isomer, unassigned) [Compound 165], the IC50 under setting [1] fell in the range of 0.01 to 0.1 µM.
On to `COc1c([C@@H]2C[C@](C)(C(F)(F)F)O[C@H]2C(=O)Nc2cc(C(O)CO)ncc2F)ccc(F)c1F` (single isomer, unassigned) [Compound 689], for which the IC50 under setting [2] fell in the range of 0.1 to 1 µM.
As to `CCOc1c([C@@H]2[C@@H](C(=O)Nc3ccnc(S(C)(=N)=O)c3)O[C@](C)(C(F)(F)F)[C@@H]2C)ccc(F)c1C` (single isomer, unassigned) [Compound 126], under setting [1], the IC50 is 0.1 to 1 µM.
The same measure, in the same setting: then `C[C@H]1[C@@H](c2ccc(F)c(F)c2OCCN2CCOCC2)[C@H](C(=O)Nc2cc(C(N)=O)nn2C)O[C@@]1(C)C(F)(F)F` [Compound 592, 5-((2R,3S,4S,5R)-3-(3,4-difluoro-2-(2-morpholinoethoxy)phenyl)-4,5-dimethyl-5-(trifluoromethyl)tetrahydrofuran-2-carboxamido)-1-methyl-1H-pyrazole-3-carboxamide], with 0.01 to 0.1 µM; and `C[C@H]1[C@@H](c2ccc(F)c(F)c2OCC2COC2)[C@H](C(=O)Nc2ccc(C(N)=O)nc2)O[C@@]1(C)C(F)(F)F` [Compound 580, 5-((2R,3S,4S,5R)-3-(3,4-difluoro-2-(oxetan-3-ylmethoxy)phenyl)-4,5-dimethyl-5-(trifluoromethyl)tetrahydrofuran-2-carboxamido)picolinamide], with less than 0.01 µM.
